We go through four molecules from patent US20250296937A1, “CYCLIC BISBENZYL TETRAHYDROISOQUINOLINE COMPOUND, AND PREPARATION METHOD THEREFOR AND USE THEREOF” (Shanghai Institute of Materia Medica, Chinesse Academy of …, priority 2021, published 2025).

“Also recorded” adds a separate entry of the source.

Experiment [1] relates to South African mutant strain of SARS-CoV-2. It counts as cell-based. Particulars: for EC50: read-out: Inhibition against viral replication of South African mutant strain EC50.
The subject of experiment [2] is delta mutant strain of SARS-CoV-2. It counts as cell-based. Particulars: for EC50: read-out: Inhibition against viral replication of delta mutant strain EC50.

As to `CNC(=O)c1ccc2cc1Oc1ccc(cc1)C[C@H]1c3c(cc(OC)c(OC)c3Oc3cc4c(cc3OC)CCN(C)[C@@H]4C2)CCN1C` [Compound 5], in experiment [1], the “inhibition against the South African strain” value is “strong inhibition; also recorded: significantly inhibited” and the EC50 stood at 2700 nM.

For the molecule `COc1cc2c3cc1Oc1c(OC)c(OC)cc4c1[C@H](Cc1ccc(cc1)Oc1cc(ccc1C(N)=O)C[C@H]3N(C)CC2)N(C)CC4` [Compound 4], in experiment [2], the “inhibition against the delta strain” value is recorded as “strong inhibition; also recorded: significantly inhibited” and the EC50 amounted to 1500 nM.

With `CCCCNC(=O)Oc1ccc2cc1Oc1ccc(cc1)C[C@H]1c3c(cc(OC)c(OC)c3Oc3cc4c(cc3OC)CCN(C)[C@@H]4C2)CCN1C` [Compound 2], in experiment [2], the “inhibition against the delta strain” value is listed as “strong inhibition; also recorded: significantly inhibited” and the EC50 was 300 nM.

`COc1cc2c3cc1Oc1c(OC)c(OC)cc4c1[C@H](Cc1ccc(cc1)Oc1cc(ccc1C(=O)NC1CC1)C[C@H]3N(C)CC2)N(C)CC4` [Compound 6]: in experiment [1], the “inhibition against the South African strain” value is given as “strong inhibition; also recorded: significantly inhibited” and the EC50 is 2200 nM.
